Experimental data published in a melting point compilation (Tetko et al.).

melting point [°C] | Compound
149 to 151 | COc1cn(-c2cccc(C(F)(F)F)c2)nc1C(=O)O
142 to 144 | O=C(O)CN1CCN(C(=O)OCc2ccccc2)CC1
179 to 181 | COc1ccc(-c2csc(N)n2)cc1C
180 to 182 | COc1ccc(Br)cc1Cc1nnn[nH]1
103 to 105 | CC(NC(=O)OC(C)(C)C)c1ccc(-c2cccc(C#N)c2)cc1 (stereo not given)
79 to 81 | O=C(O)c1cccnc1OCC(F)F
164 to 166 | Fc1ccc(-c2nnc(Cl)c3ccccc23)cc1F
166 to 168 | O=C(O)c1ccc(Cl)c(NC(=O)c2cccs2)c1
168 to 170 | Cc1ncc(C(=O)O)c(C(C)C)n1
174 to 176 | Oc1ccc(-c2ccccc2)nc1
185 to 187 | O=C(O)c1cc(-c2ccc(Cl)cc2)on1
79 to 81 | Clc1ncnc2c1CCCC2
111 to 113 | CNC(c1cccnc1)c1ccc(Cl)cc1Cl (stereo not given)
216 to 218 | Nc1cc(C(=O)O)ccc1NCCCN1CCOCC1
125 to 127 | COc1cccc(C2(C(=O)O)CCCC2)c1
63 to 65 | CCOc1ccc(N)cc1Cl
259 to 261 | CCCCCCC(NC)C(=O)O (stereo not given)
213 to 215 | Cn1ncc(C(=O)O)c1-c1ccccc1
142 to 144 | O=C(c1ccc2c(c1)CCCN2)N1CCOCC1
180 to 182 | O=C(O)Cn1nnc(-c2ccccc2)n1
124 to 126 | CNc1nc(-c2ccccc2)no1
107 to 109 | O=C(O)CCc1ccc2ccccc2n1
198 to 200 | O=C(O)c1cccc(S(=O)(=O)N2CCOCC2)c1
53 to 55 | CC(C)C(Br)C(=O)NCC1CCCO1 (stereo not given)

melting point [°C] | Compound
183 to 185 | O=C(O)CC1=NN(c2ccc(Cl)nn2)C(=O)C1
151 to 153 | CN(c1ccccc1)S(=O)(=O)c1ccc(Cl)c(C(=O)O)c1
147 to 149 | CC(C)c1nnc(C(C)C)[nH]1
124 to 126 | COC(=O)c1cc(C=O)c[nH]1
124 to 126 | CC(=O)NCCc1ccc(C(=O)CCl)s1
218 to 220 | CCOC(=O)c1c(C)nn2c(=O)cc(CCl)[nH]c12
117 to 119 | COc1cccc(Nc2nc3ccccc3s2)c1
109 to 111 | Cc1csc(C(O)(CC(=O)O)C(F)(F)F)n1 (stereo not given)
140 to 142 | CCNc1cc2c(nn1)CCNC2
52 to 54 | N#CCCN1CCS1(=O)=O
169 to 171 | NC(=NO)c1ccc(N2CCC(O)CC2)cc1
64 to 69 | O=C(O)Cc1ccco1
86 to 88 | N#Cc1cccc(Oc2ccc(Cl)cc2)n1
218 to 222 | Cc1ccc(-c2nc(N)sc2CC(=O)O)cc1
124 to 126 | O=C(O)CCCN1C(=O)CSC1=S
183 to 185 | Cc1[nH]nc(C(=O)O)c1[N+](=O)[O-]
134 to 136 | Cn1[nH]c2c(c1=N)CCC2
151 to 153 | NNC(=O)c1ccc(F)cc1Br
79 to 81 | CC(C)(C)OC(=O)N1CCN(CC#N)CC1
59 to 61 | CCc1cc2c(n1Cc1ccccc1)CCCC2=O
164 to 166 | Cn1cc(S(=O)(=O)Cl)cc1C(=O)O
216 to 220 | Nn1c(S)nnc1-c1cccs1
152 to 154 | NC(=NO)c1cccnc1Oc1ccccc1
110 to 112 | Cc1ccc(C(NC(=O)CCl)c2cccs2)cc1 (stereo not given)

melting point [°C] | Compound
61 to 63 | ON=C1CCN(Cc2ccccn2)CC1
82 to 84 | Nc1ccnn1Cc1ccccc1
101 to 103 | c1coc(-c2cc[nH]n2)c1
191 to 193 | O=C(O)CNC(c1ccccc1)C(F)(F)F (stereo not given)
86 to 88 | O=C(O)C1C2CCCCC21 (stereo not given)
181 to 183 | CNC(=S)NNC(=O)c1ccccc1
98 to 100 | N#Cc1cccc(NC(=O)CCCl)c1
172 to 174 | CCCCn1c(=O)[nH]c(=O)c2c1nc(CCl)n2CC
118 to 120 | CC(C)(C)OC(=O)NC1CCCN(Cc2ccccc2)C1 (stereo not given)
64 to 66 | NC1(C(=O)NCC2CC2)CCCC1
83 to 85 | CC(C(=O)OCc1ccccc1)S(N)(=O)=O (stereo not given)
93 to 95 | COc1ccc(Sc2ccc(N)cc2)cc1
98 to 100 | O=Cc1cccc(OC(C(=O)O)c2ccccc2)c1 (stereo not given)
165 to 167 | O=C(Nc1cccc(O)c1)c1ccsc1
87 to 89 | CC1CCCN1C(=O)c1ccc(C#N)cc1 (stereo not given)
73 to 75 | CCc1nc(N)sc1C
48 to 50 | N#CCC(=O)c1ccc(C(F)(F)F)cc1
105 to 107 | Cc1sc(N)nc1-c1ccc(OC(F)F)cc1
235 to 237 | CC(C)Cc1cc(C(=O)O)cc(O)n1
329 to 331 | Cc1nc(O)ccc1C(=O)O
206 to 208 | CNC(=O)c1ccc(NC(=O)CCl)cc1
115 to 117 | O=C(O)CCOc1ccccc1Cl
199 to 201 | Cn1cc([N+](=O)[O-])cc1C(=O)O
33 to 37 | CCOc1ccc(C(C)=O)cc1CN1CCCCC1

melting point [°C] | Compound
118 to 120 | Nc1ccc(S(=O)(=O)CC2CCOC2)cc1 (stereo not given)
58 to 60 | O=S1(=O)CCCN1Cc1ccc(Br)cc1
174 to 176 | CC(C)(C)n1ccnc1SCC(=O)O
162 to 164 | CCCCCOc1ccc2cc(C(=O)O)[nH]c2c1
149 to 151 | CC(=O)c1cc2ccccc2[nH]1
209 to 211 | Cc1cc(C(=O)O)cc(S(=O)(=O)Cl)c1Cl
212 to 214 | CC1(C)CC(=O)c2sc(N)nc2C1
203 to 205 | CNC(=O)c1c[nH]c2ccccc12
106 to 108 | NS(=O)(=O)CCSc1ccccc1
94 to 96 | COc1ccccc1NCCC(N)=O
118 to 120 | NCCNc1ccncc1
143 to 145 | Cc1c(Cl)cccc1OCC(=O)O
286 to 288 | O=c1cc[nH]c2ccc(Br)cc12
188 to 190 | O=C(O)C(=O)Cc1ccc2ccccc2c1
115 to 117 | COC(=O)C(NC(c1ccccc1)(c1ccccc1)c1ccccc1)C(C)O (stereo not given)
95 to 97 | COc1cc(C#N)ccc1OCCCl
149 to 151 | CC1CCC(Nc2ccccn2)CC1 (stereo not given)
207 to 209 | CS(=O)(=O)c1ccc(N)c(Br)c1
100 to 102 | Nc1cc(-c2ccc(F)cc2)no1
323 to 325 | O=C(O)c1cc(-c2cccnc2)nc2ccccc12
94 to 96 | COC(=O)c1cc2ccccn2c1
260 to 262 | O=C(O)c1cccc(S(=O)(=O)Nc2ccc(I)cc2)c1
116 to 118 | COc1ccc(Br)c(-c2nnc(CCC(=O)O)o2)c1
183 to 185 | O=c1[nH]c(-c2cccs2)no1

melting point [°C] | Compound
74 to 76 | NCCNS(=O)(=O)c1ccccc1
76 to 78 | CCn1c(C(C)=O)nc2ccccc21
184 to 186 | Cn1c(CO)nnc1-c1ccccc1
160 to 161 | O=C(O)c1csc(-c2ccccc2)n1
89 to 91 | NNC(=O)CC1CC1
204 to 206 | Cc1ccc(C(=O)O)c(O)c1O
207 to 209 | O=C(O)CNC(=O)c1cc2c(s1)CCC2
161 to 163 | CC1CCN(Cc2ccccc2CN)CC1
224 to 226 | Nc1cc(N2CCNC2=O)ccc1Cl
150 to 152 | NC(=O)CCN1C(=O)NC2(CCCC2)C1=O
59 to 61 | S=C=Nc1ccc2ccccc2c1
245 to 247 | O=C1NS(=O)(=O)c2ccc(Br)cc21
152 to 154 | CC(=O)c1c(C)[nH]c(C(=O)C(C)Cl)c1C (stereo not given)
163 to 165 | CC(NC(=O)c1cccs1)C(=O)O (stereo not given)
239 to 241 | O=C(O)CCc1nc2ccccc2c(=O)[nH]1
139 to 141 | CNC(=O)NC(C)(C)C(=O)O
153 to 155 | CC(C)(C)[Si](C)(C)Oc1cc(C(=O)O)cc2ccccc12
139 to 141 | Cc1sc(=O)n(CC(=O)O)c1-c1ccc(F)cc1
104 to 106 | O=S(=O)(Cl)c1ccc(-n2cccn2)c(F)c1
210 to 212 | CC(=O)N(c1ccc(Cl)cc1)c1nc(C=O)cs1
147 to 149 | COCCN(CCOC)S(=O)(=O)c1ccc(C(=O)O)cc1
168 to 170 | CC(C)(C)OC(=O)NC1(C(N)=NO)CCCC1
130 to 132 | Cc1ccc(N)cc1N1CCOC1=O
247 to 249 | O=C(O)c1ccc(N2CCCS2(=O)=O)cc1

melting point [°C] | Compound
82 to 83 | Cc1n[nH]c(C)c1S(=O)(=O)N1CCOCC1
148 to 150 | CC(C1CC1)n1ncc2c(C(=O)O)cc(C3CC3)nc21 (stereo not given)
74 to 76 | CC(=O)c1c(C)nn(C(C)C)c1C
232 to 234 | c1ccc2[nH]c(C3CC3)nc2c1
77 to 79 | CC(C#N)CNC(=O)OC(C)(C)C (stereo not given)
116 to 118 | Nc1ccc(Oc2ccc(C(F)(F)F)cc2)nc1
206 to 208 | Cc1oc2c(F)c(F)c(F)c(F)c2c1C(=O)O
188 to 190 | FC(F)Sc1ccc(Nc2nnc(S)s2)cc1
206 to 208 | O=C(O)c1ccn(-c2c(Cl)cc([N+](=O)[O-])cc2Cl)n1
233 to 235 | CCN(C(=O)CCl)c1nc2ccccc2s1
72 to 74 | CCN(CC)S(=O)(=O)c1ccc(CC#N)nc1
101 to 103 | Cn1ccnc1C(O)CCc1ccccc1 (stereo not given)
207 to 209 | Cn1cc[nH]c(=O)c1=O
67 to 69 | Nc1ccc(Oc2ccccc2)cn1
200 to 210 | NC(=O)c1cc(-c2ccccc2)sc1N
171 to 173 | O=C(O)Cc1ccc(-n2cnnn2)cc1
144 to 146 | NNS(=O)(=O)Cc1ccc(F)cc1
74 to 76 | CC(=O)c1c(C)cc(C)c(CCl)c1C
156 to 158 | Nc1cccc(S(=O)(=O)N2CCCC2)c1

Compound | melting point [°C]
CC(C)(C)C1CNC(=O)C1 (stereo not given) | 130 to 132
CC(Oc1ccc(-c2ccccc2)cc1)C(=O)O (stereo not given) | 159 to 161
N#Cc1cc(C(=O)C(Cl)(Cl)Cl)c[nH]1 | 129 to 131
NCC(O)c1cc(Cl)c2c(c1)OCCO2 (stereo not given) | 131 to 133
N#CC1CNCCN1Cc1ccccc1 (stereo not given) | 98 to 100
CNC(=O)c1cccc(CCN)c1 | 110 to 112
